Test system: lipid profile
Assay: Lipid profile (TC, HDL-C, LDL-C, TG, VLDL-C), type 2 diabetics
Type: in vivo, human
Conditions: DM; 400 mcg
Method: (§1) The present clinical study is a prospective, randomized, double blind, placebo-controlled study. Patients of either sex, aged 30-65 years, fasting plasma glucose of 110-126 mg/dl, a glycosylated hemoglobin (HbA1c) between 6.5% and 8% and taking stable dose of anti-diabetic treatment (metformin 1500-2000 mg/day) for the past 8 weeks prior to the screening visit; and having endothelial dysfunction defined as ≤6% change in reflection index (RI) on post salbutamol challenge test were included in the study. Patients with severe uncontrolled hyperglyceamia, uncontrolled hypertension, cardiac arrhythmia, impaired hepatic or renal function, history of malignancy or stroke, smoking, chronic alcoholism, any other serious disease requiring active treatment and treatment with any other herbal supplements, were excluded from the study.
(§2) After screening, all the eligible subjects were randomized to receive either one of the three treatments orally for duration of 12 weeks—Group1—one capsule of Crominex®3+, 200 mcg once daily, Group 2—one capsule Crominex®3+, 400 mcg once daily; Group 3—one capsule of placebo once daily.
(§3) Subjects were required for follow up at 4, 8 and 12 weeks of therapy. At each visit they were evaluated for efficacy and safety. Pharmacodynamic evaluation for endothelial function was conducted at every visit. Blood samples were collected for evaluation of biomarkers before and at the end of treatment. Safety lab investigations for hematological, hepatic and renal biochemical parameters were conducted before and at the end of the study and also as and when required (in case of any adverse drug reaction (ADR). Subjects were enquired for the presence of ADR and the same was recorded in the case report form. Compliance to therapy was assessed by pill count method.
All the subjects had undergone complete physical examination, safety lab evaluations at baseline and at the end of the treatment. Samples were collected after an overnight fast of 12 hrs after the last dose of medication for determination of hemoglobin, glycosylated hemoglobin (HbA1c), blood urea, serum creatinine, liver function, lipid profile (Total cholesterol, High density lipoprotein cholesterol (HDL-C), low density lipoprotein cholesterol (LDL-C) using appropriate standard techniques.
(§4) When the results with Crominex® 3+ in the above two examples were highly significant, especially with the 400 mcg once daily dose in type 2 diabetics, two more clinical studies (EXAMPLES 3 & 4) were conducted at the same institute, following the same methodology as described earlier, on the individual components of Crominex® 3+, i.e., chromium chloride and Phyllanthus emblica+Shilajit, and other chromium supplements available in the market, i.e., chromium picolinate, chromium polynicotinate and chromium dinicocysteinate, in type 2 diabetics as well as in subjects with metabolic syndrome symptoms.

Molecule | HDL | LDL | TC | TG
O.O.O.O.O.O.[Cl][Cr]([Cl])[Cl] [Chromium chloride, Chromium chloride (CrCl3.6H2O)] | 2.79% | −1.3% | −0.28% | −0.49%
chromium dinicocysteinate | 1.19% | −0.81% | −0.38% | −0.37%
chromium picolinate | 2.96% | −2.35% | −0.99% | −0.58%
chromium polynicotinate | −1.23% | −0.38% | −0.68% | −0.68%

Same assay, conditions: type 2 diabetics (Example 3); chromium products 400 mcg; 12 weeks of treatment

Molecule | Mean percentage change in HDL-C | Mean percentage change in LDL-C | Mean percentage change in Total Cholesterol | Mean percentage change in Triglycerides
O.O.O.O.O.O.[Cl][Cr]([Cl])[Cl] [Chromium chloride, Chromium chloride (CrCl3.6H2O)] | 2.79 ± 2.88 @NS % | −1.30 ± 1.42 NS % | −0.28 ± 0.81 #NS % | −0.49 ± 0.93 NS %
chromium dinicocysteinate | 1.19 ± 4.01 NS % | −0.81 ± 1.52 $NS % | −0.38 ± 0.86 #NS % | −0.37 ± 0.92 NS %
chromium picolinate | 2.96 ± 3.38 @NS % | −2.35 ± 1.81 @NS % | −0.99 ± 1.08NS % | −0.58 ± 1.04 NS %
chromium polynicotinate | −1.23 ± 3.71 @NS % | −0.38 ± 2.10 @NS % | −0.68 ± 1.21$NS % | −0.68 ± 0.83 NS %

Same assay, conditions: type 2 diabetics (Example 3); chromium products 400 mcg; post-treatment, 12 weeks

Molecule | HDL-C Post Tt | LDL-C Post Tt | Total Cholesterol Post Tt | Triglycerides Post Tt
O.O.O.O.O.O.[Cl][Cr]([Cl])[Cl] [Chromium chloride, Chromium chloride (CrCl3.6H2O)] | 39.95 ± 2.72 mg/dL | 108.93 ± 10.40 mg/dL | 184.89 ± 9.67 NS mg/dl | 180.11 ± 7.80 $ mg/dl
chromium dinicocysteinate | 37.83 ± 2.90 NS mg/dl | 128.91 ± 16.46 $^ mg/dl | 201.28 ± 17.29 NS mg/dl | 172.67 ± 3.88 NS mg/dl
chromium picolinate | 39.84 ± 1.12 $ mg/dl | 119.07 ± 18.46 mg/dL | 194.68 ± 17.93 $ mg/dl | 178.84 ± 8.45 $ mg/dl
chromium polynicotinate | 38.65 ± 1.42 NS mg/dl | 123.32 ± 8.70 NS mg/dl | 198.00 ± 8.64 $^ mg/dl | 180.15 ± 3.84 @ mg/dl

Same assay, conditions: type 2 diabetics (Example 3); chromium products 400 mcg; pre-treatment

Molecule | HDL-C Pre Tt | LDL-C Pre Tt | Total Cholesterol Pre Tt | Triglycerides Pre Tt
O.O.O.O.O.O.[Cl][Cr]([Cl])[Cl] [Chromium chloride, Chromium chloride (CrCl3.6H2O)] | 38.89 ± 2.85 mg/dL | 110.33 ± 10.74 mg/dL | 185.42 ± 9.68 mg/dL | 181.00 ± 7.84 mg/dL
chromium dinicocysteinate | 37.39 ± 2.43 mg/dL | 130.00 ± 16.71 mg/dL | 202.06 ± 17.48 mg/dL | 173.33 ± 4.83 mg/dL
chromium picolinate | 38.74 ± 1.69 mg/dL | 121.92 ± 18.50 mg/dL | 196.63 ± 18.07 mg/dL | 179.89 ± 8.65 mg/dL
chromium polynicotinate | 39.15 ± 1.23 mg/dL | 123.97 ± 9.73 mg/dL | 199.40 ± 9.25 mg/dL | 181.40 ± 4.47 mg/dL

Test system: not listed separately
Assay: Blood pressure, type 2 diabetics
Type: in vivo, human
Conditions: type 2 diabetics (Example 3); chromium products 400 mcg; post-treatment, 12 weeks
Method: as §4

Molecule | Diastolic blood pressure Post Tt | Systolic blood pressure Post Tt
O.O.O.O.O.O.[Cl][Cr]([Cl])[Cl] [Chromium chloride, Chromium chloride (CrCl3.6H2O)] | 77.16 ± 1.68 NS mmHg | 117.26 ± 1.52 NS mmHg
chromium dinicocysteinate | 76.78 ± 1.22 NS mmHg | 118.11 ± 2.11 NS mmHg
chromium picolinate | 76.32 ± 2.14 NS mmHg | 117.47 ± 2.82 NS mmHg
chromium polynicotinate | 79.7 ± 2.85 NS mmHg | 124.1 ± 4.88 NS mmHg

Same assay, conditions: type 2 diabetics (Example 3); chromium products 400 mcg; pre-treatment

Molecule | Diastolic blood pressure Pre Tt | Systolic blood pressure Pre Tt
O.O.O.O.O.O.[Cl][Cr]([Cl])[Cl] [Chromium chloride, Chromium chloride (CrCl3.6H2O)] | 77.05 ± 1.68 mmHg | 117.37 ± 2.50 mmHg
chromium dinicocysteinate | 77.00 ± 1.41 mmHg | 118.89 ± 3.08 mmHg
chromium picolinate | 76.95 ± 2.70 mmHg | 118.63 ± 2.75 mmHg
chromium polynicotinate | 81.2 ± 3.07 mmHg | 125.9 ± 5.17 mmHg

Test system: malondialdehyde (MDA)
Assay: Malondialdehyde level, spectrophotometric, type 2 diabetics
Type: in vivo, human
Conditions: DM; 400 mcg
Method: as §1, §2, §3
(§5) Nitric oxide, MDA, Glutathione and levels were estimated spectrophotometrically as follows. Malondialdehyde (MDA) levels were determined as described in Vidyasagar, et al., “Oxidative stress and antioxidant status in acute organophosphorous insecticide poisoning,” Indian J. Pharmacol. (April 2004) 36(2): 76-79. Glutathione levels were determined as described in G. L. Ellman, Arch. Biochem. Biophys. (1959) 82: 70-77 (original determination). Nitric oxide levels were estimated spectrophotometrically as described in Miranda, et al., “A Rapid, Simple Spectrophotometric Method for Simultaneous Detection of Nitrate and Nitrite,” NITRIC OXIDE: Biology and Chemistry (2001) Vol. 5, No. 1, pp. 62-71. hsCRP (high sensitivity C-reactive protein) was determined by ELISA method.
as §4

Molecule | MDA
O.O.O.O.O.O.[Cl][Cr]([Cl])[Cl] [Chromium chloride, Chromium chloride (CrCl3.6H2O)] | −5.14%
chromium dinicocysteinate | −6.62%
chromium picolinate | −6.03%
chromium polynicotinate | −5.56%

Same assay, conditions: type 2 diabetics (Example 3); chromium products 400 mcg; 12 week treatment

Molecule | Mean percentage change in MDA
O.O.O.O.O.O.[Cl][Cr]([Cl])[Cl] [Chromium chloride, Chromium chloride (CrCl3.6H2O)] | −5.14 ± 1.92 #NS %
chromium dinicocysteinate | −6.62 ± 1.20@NS %
chromium picolinate | −6.03 ± 1.65 #NS %
chromium polynicotinate | −5.56 ± 1.34 #NS %

Same assay, conditions: type 2 diabetics (Example 3); chromium products 400 mcg; post-treatment, 12 weeks

Molecule | MDA Post Tt
O.O.O.O.O.O.[Cl][Cr]([Cl])[Cl] [Chromium chloride, Chromium chloride (CrCl3.6H2O)] | 3.73 ± 0.39 nmol/mL
chromium dinicocysteinate | 3.72 ± 0.30 nmol/mL
chromium picolinate | 3.78 ± 0.34 nmol/mL
chromium polynicotinate | 3.75 ± 0.24 nmol/mL

Same assay, conditions: type 2 diabetics (Example 3); chromium products 400 mcg; pre-treatment

Molecule | MDA Pre Tt
O.O.O.O.O.O.[Cl][Cr]([Cl])[Cl] [Chromium chloride, Chromium chloride (CrCl3.6H2O)] | 3.93 ± 0.39 nmol/mL
chromium dinicocysteinate | 3.98 ± 0.31 nmol/mL
chromium picolinate | 4.02 ± 0.33 nmol/mL
chromium polynicotinate | 3.97 ± 0.23 nmol/mL

Test system: high sensitivity C-reactive protein (hsCRP)
Assay: hsCRP by ELISA, type 2 diabetics
Type: in vivo, human
Conditions: DM; 400 mcg
Method: as §1, §2, §3, §5, §4

Molecule | hsCRP
O.O.O.O.O.O.[Cl][Cr]([Cl])[Cl] [Chromium chloride, Chromium chloride (CrCl3.6H2O)] | −9.92%
chromium dinicocysteinate | −8.61%
chromium picolinate | −18.9%
chromium polynicotinate | −11.45%

Same assay, conditions: type 2 diabetics (Example 3); chromium products 400 mcg; 12 week treatment

Molecule | Mean percentage change in hsCRP
O.O.O.O.O.O.[Cl][Cr]([Cl])[Cl] [Chromium chloride, Chromium chloride (CrCl3.6H2O)] | −9.92 ± 3.86 #$NS %
chromium dinicocysteinate | −8.61 ± 12.40 #@NS %
chromium picolinate | −18.90 ± 7.04@$NS %
chromium polynicotinate | −11.45 ± 12.28 #NS %

Same assay, conditions: type 2 diabetics (Example 3); chromium products 400 mcg; post-treatment, 12 weeks

Molecule | hsCRP Post Tt
O.O.O.O.O.O.[Cl][Cr]([Cl])[Cl] [Chromium chloride, Chromium chloride (CrCl3.6H2O)] | 2.46 ± 0.55 mg/L
chromium dinicocysteinate | 2.56 ± 0.58 @ mg/L
chromium picolinate | 2.22 ± 0.64 mg/L
chromium polynicotinate | 2.43 ± 0.49 mg/L

Same assay, conditions: type 2 diabetics (Example 3); chromium products 400 mcg; pre-treatment

Molecule | hsCRP Pre Tt
O.O.O.O.O.O.[Cl][Cr]([Cl])[Cl] [Chromium chloride, Chromium chloride (CrCl3.6H2O)] | 2.72 ± 0.53 mg/L
chromium dinicocysteinate | 2.79 ± 0.53 mg/L
chromium picolinate | 2.70 ± 0.63 mg/L
chromium polynicotinate | 2.75 ± 0.47 mg/L
